Measurements reported in ChEMBL document CHEMBL1201862, “PubChem BioAssay data set” (2004).
Values joined by “and” are separate entries in the source; they are usually repeats but may differ in a detail not shown here. Identical values can stand only once. Counter-ions that a name gives are not always drawn. Active and inactive are the calls of the source.

How the values were obtained:
cells [1] = assay type: functional, cell-based
[2] = target: T1, Trace amine-associated receptor 1 (Homo sapiens, UniProt Q96RJ0); assay: Counterscreen for agonists of the human trace amine associated receptor 1 (hTAAR1): Fluorescence-based cell-based high throughput dose response assay to identify hTAAR1 agonist that also desensitize TAAR1 receptor response.; assay type: functional
T1 sequence (Q96RJ0 whole entry): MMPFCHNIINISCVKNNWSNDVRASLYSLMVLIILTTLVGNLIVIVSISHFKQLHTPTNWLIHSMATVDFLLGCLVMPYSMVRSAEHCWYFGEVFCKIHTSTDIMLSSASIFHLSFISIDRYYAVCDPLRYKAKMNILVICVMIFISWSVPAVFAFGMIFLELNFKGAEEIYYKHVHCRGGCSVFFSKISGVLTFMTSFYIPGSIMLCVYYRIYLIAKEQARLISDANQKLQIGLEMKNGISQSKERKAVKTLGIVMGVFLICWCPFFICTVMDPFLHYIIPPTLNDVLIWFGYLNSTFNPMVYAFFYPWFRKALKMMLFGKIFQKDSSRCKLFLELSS

[3] = target: T1, Trace amine-associated receptor 1; assay: Fluorescence-based cell-based high throughput dose response assay to identify agonists of the human trace amine associated receptor 1 (TAAR1).; assay type: functional
cells [4] = assay type: functional, cell-based; remark: listed apart in the source
Albumin = Albumin (Bos taurus, UniProt P02769); assay: Counterscreen for inhibitors of T-cell receptor (TCR)-CD3 interaction: Fluorescence-based biochemical high throughput dose response assay to identify inhibitors of T-cell receptor (TCR)-CD3 interaction using a TAMRA-labeled BSA probe.; assay type: functional
Albumin, sequence (P02769 whole entry): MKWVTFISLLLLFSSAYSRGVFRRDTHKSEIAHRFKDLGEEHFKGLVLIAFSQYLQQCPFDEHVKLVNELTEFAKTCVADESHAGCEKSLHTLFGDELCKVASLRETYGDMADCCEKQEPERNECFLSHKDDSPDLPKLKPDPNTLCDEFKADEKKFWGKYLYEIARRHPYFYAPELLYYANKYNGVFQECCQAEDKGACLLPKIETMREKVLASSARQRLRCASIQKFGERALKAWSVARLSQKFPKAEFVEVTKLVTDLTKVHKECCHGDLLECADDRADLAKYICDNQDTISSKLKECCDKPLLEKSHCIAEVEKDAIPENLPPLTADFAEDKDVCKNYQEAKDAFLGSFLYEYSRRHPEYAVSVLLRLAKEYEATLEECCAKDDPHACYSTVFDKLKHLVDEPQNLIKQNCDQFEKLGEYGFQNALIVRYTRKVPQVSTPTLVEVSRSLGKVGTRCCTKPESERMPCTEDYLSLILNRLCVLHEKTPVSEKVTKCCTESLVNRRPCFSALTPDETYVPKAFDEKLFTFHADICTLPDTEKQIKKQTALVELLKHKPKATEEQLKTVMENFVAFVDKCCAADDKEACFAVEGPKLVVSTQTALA

H9c2 = assay: cells; assay type: functional, cell-based; conditions: Rattus norvegicus, H9c2, Myocardium;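 also: confirmatory concentration-response retest of ultra-high-throughput screening hits for modulation of myocardial damage; cell death induced by hydrogen peroxide oxidative stress; compound pretreatment for 60 min then peroxide exposure for 2 h; potency is for protecting the cells against peroxide damage rather than for killing them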
[5] = target: T2, DNA repair protein RAD52 homolog (Homo sapiens, UniProt P43351); assay type: functional, biochemical
T2 sequence (P43351 whole entry): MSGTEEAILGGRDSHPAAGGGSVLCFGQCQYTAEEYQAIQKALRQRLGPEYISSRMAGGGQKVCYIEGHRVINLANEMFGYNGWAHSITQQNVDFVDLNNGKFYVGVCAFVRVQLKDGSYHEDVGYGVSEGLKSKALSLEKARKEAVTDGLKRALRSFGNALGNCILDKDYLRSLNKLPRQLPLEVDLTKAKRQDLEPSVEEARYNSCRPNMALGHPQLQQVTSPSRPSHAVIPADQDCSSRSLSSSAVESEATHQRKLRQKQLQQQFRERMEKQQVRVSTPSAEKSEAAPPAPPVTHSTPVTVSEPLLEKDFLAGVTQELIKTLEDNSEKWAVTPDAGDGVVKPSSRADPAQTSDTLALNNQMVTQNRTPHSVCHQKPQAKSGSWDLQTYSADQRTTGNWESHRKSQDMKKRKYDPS

[6] = target: T3, DNA repair and recombination protein RAD54-like (Homo sapiens, UniProt Q92698); assay: RAD54 Holliday junction migration blockers – biochemical, fluorescence, cherry-picked samples, dose series, confirmation (AID 651657); assay type: functional
T3 sequence (Q92698 whole entry): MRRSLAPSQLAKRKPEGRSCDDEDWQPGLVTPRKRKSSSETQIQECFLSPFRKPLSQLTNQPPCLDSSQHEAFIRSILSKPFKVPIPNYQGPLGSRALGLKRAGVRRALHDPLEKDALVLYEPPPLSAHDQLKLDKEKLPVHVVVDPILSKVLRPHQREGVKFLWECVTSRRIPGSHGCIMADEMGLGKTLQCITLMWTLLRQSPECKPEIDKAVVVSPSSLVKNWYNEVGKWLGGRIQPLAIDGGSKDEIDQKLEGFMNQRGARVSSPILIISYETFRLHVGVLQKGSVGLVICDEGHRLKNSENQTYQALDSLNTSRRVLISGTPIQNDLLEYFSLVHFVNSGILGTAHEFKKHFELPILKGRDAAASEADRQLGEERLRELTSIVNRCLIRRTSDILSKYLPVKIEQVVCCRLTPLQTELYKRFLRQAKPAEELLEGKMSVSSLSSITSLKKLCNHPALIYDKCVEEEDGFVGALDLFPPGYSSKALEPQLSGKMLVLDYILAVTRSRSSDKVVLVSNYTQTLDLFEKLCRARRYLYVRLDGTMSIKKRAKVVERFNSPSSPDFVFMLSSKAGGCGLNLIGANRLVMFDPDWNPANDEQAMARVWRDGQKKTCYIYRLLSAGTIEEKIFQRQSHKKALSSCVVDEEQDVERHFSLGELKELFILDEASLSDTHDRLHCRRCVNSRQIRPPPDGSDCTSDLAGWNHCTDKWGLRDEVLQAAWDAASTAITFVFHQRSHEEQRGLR

[7] = target: T4, Corticotropin-releasing factor receptor 2/Corticotropin-releasing factor-binding protein (Homo sapiens, UniProt P24387+Q13324); assay: activators of CRF receptor 2 with binding protein – uHTS hits, confirmation (AID 602473); assay type: functional; conditions: read-out: EC50_Mean
T4 sequence (Q13324 whole entry): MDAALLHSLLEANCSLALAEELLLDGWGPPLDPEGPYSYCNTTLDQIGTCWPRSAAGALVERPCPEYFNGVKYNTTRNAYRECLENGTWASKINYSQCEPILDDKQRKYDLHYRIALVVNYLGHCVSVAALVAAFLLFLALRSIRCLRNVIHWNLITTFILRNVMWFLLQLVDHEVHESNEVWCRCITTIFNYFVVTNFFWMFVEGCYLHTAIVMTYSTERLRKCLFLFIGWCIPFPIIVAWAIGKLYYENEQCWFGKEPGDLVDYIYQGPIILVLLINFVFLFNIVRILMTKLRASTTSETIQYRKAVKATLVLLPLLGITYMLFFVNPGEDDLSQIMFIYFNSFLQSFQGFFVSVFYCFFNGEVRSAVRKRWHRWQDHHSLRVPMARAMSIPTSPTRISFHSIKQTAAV
T4 sequence (P24387 whole entry): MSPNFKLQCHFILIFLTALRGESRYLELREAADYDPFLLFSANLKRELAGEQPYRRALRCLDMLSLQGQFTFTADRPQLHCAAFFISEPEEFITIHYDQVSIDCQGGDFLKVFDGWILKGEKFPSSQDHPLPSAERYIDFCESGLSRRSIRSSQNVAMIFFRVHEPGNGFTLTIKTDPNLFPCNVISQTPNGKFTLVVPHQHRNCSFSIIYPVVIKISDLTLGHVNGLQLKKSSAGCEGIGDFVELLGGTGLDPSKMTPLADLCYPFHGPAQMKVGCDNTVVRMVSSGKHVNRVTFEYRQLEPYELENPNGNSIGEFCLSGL

[8] = blockers of CRF-binding protein–CRF-R2 complex – cell-based, uHTS hits, 384-well, dose response (AID 651639); assay type: functional, Homo sapiens; conditions: read-out: IC50_Mean
[9] = target: T4, Corticotropin-releasing factor receptor 2/Corticotropin-releasing factor-binding protein; assay: Dose Response confirmation of uHTS hits for small molecule antagonists of the CRF-binding protein and CRF-R2 receptor complex.; assay type: functional; conditions: read-out: IC50_Mean
[10] = target: T5, Rac GTPase-activating protein 1 (Homo sapiens, UniProt Q9H0H5); assay: blockers of MgcRacGAP-driven Rac1 GTP hydrolysis – biochemical, ADP Hunter fluorescence, primary and confirmatory, confirmation (AID 624330); assay type: functional
T5 sequence (Q9H0H5 whole entry): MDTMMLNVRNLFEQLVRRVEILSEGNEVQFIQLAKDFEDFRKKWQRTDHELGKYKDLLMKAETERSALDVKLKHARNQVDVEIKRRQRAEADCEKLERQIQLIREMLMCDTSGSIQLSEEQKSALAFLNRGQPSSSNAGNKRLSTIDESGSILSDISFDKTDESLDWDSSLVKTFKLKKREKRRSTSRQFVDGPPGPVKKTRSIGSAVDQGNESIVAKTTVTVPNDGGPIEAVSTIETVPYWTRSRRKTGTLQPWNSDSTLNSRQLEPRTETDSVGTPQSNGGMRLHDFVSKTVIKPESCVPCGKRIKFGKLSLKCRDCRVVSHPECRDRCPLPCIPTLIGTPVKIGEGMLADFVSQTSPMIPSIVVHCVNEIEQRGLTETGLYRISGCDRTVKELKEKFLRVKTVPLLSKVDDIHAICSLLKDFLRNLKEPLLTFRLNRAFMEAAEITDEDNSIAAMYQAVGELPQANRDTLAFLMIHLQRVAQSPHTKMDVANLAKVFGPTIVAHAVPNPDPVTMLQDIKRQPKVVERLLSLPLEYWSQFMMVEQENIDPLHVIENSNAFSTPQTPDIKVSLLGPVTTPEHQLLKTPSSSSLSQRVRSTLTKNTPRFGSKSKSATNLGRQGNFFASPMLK

H4 = assay: Luminescence Cell-Based Dose Response HTS to Identify Activators of 5'UTR Stem-Loop Driven Prion Protein mRNA Translation in H4 Neuroglioblastoma Cells. [Related pubchem assays: 1829 (Project Summary), 1814 (Primary HTS)]; assay type: functional; conditions: Homo sapiens
[11] = Luminescence-based cell-based high throughput dose response assay to identify activators of the DAF-12 from the parasite S. stercoralis (ssDAF-12).; assay type: functional
[12] = target: T6, Oxysterols receptor LXR-beta (Homo sapiens, UniProt P55055); assay: LXR agonists, Gal4 luciferase reporter, dose response, counter-screen for ssDAF-12 agonist project, cell-based, luminescence, HEK293, S. stercoralis campaign (AID 720737); assay type: functional; conditions: read-out: IC50 (the source's name)
T6 sequence (P55055 whole entry): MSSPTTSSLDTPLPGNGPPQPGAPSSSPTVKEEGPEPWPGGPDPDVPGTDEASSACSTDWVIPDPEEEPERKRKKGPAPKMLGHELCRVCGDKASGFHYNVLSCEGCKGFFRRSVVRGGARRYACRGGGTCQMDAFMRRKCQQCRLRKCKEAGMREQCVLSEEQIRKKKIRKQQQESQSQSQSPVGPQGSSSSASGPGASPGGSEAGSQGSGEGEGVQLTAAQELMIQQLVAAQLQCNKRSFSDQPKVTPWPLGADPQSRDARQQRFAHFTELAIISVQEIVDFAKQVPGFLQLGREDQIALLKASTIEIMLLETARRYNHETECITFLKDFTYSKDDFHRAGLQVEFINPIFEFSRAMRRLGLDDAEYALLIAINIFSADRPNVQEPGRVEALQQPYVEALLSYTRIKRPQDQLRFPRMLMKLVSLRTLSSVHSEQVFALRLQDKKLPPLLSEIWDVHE

Large T antigen = Large T antigen (Simian virus 40, UniProt P03070); assay type: functional, Betapolyomavirus macacae;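 also: Confirmatory-stage PubChem screen for compounds that inhibit SV40 T antigen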
Large T antigen, sequence (P03070 whole entry): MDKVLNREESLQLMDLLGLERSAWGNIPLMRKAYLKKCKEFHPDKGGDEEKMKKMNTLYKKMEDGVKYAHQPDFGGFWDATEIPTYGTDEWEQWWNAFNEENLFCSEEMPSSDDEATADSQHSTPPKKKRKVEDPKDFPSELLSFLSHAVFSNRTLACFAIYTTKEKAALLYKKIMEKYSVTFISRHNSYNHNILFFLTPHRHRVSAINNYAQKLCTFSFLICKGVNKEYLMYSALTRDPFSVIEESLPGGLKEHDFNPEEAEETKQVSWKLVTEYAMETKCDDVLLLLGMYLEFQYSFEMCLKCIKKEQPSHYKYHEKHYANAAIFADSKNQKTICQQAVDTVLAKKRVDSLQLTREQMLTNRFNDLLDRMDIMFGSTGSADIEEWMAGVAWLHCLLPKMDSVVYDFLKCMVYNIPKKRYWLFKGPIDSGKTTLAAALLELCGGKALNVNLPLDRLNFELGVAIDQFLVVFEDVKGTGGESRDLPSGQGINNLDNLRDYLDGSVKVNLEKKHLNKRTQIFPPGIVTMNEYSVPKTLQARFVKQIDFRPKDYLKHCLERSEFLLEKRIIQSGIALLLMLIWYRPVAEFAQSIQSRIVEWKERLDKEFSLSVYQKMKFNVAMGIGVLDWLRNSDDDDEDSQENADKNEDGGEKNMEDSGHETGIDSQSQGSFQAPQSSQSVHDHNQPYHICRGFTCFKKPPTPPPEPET

[13] = Luminescence Cell-Based Dose Response HTS to Identify Activators of Luciferase Translation or Activity in H4 […] Cells. [Related pubchem assays: 1829 (Project Summary), 1814 (Primary HTS)]; assay type: functional
[14] = viability loss in HeLa cells – cytotoxicity control for MgcRacGAP inhibitor project, dose response (AID 624300); assay type: functional
[15] = target: 5-hydroxytryptamine receptor 2A (Mus musculus, UniProt P35363); assay type: functional, cell-based;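 also: CHO-K1 cells with tagged receptor and beta-arrestin; agonist potency measured as compound-induced activation of the receptor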
5-hydroxytryptamine receptor 2A, sequence (P35363 whole entry): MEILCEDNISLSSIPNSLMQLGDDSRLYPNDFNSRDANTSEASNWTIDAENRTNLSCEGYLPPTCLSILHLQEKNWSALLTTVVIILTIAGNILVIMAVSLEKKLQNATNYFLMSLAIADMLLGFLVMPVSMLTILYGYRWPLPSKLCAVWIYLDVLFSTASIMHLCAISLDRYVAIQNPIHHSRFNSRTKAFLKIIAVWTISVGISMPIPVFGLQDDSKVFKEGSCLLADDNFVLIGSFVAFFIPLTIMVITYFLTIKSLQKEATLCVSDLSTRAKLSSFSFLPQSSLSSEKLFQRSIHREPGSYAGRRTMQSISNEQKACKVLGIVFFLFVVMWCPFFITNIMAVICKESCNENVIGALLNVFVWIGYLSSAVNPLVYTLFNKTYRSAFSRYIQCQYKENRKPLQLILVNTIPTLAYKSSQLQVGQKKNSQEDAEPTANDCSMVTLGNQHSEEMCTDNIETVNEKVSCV

Mu-type opioid receptor = Mu-type opioid receptor (Homo sapiens, UniProt P35372); assay type: functional, cell-based;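 also: U2OS cells with beta-arrestin recruitment to OPRM1 by beta-gal complementation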
Mu-type opioid receptor, sequence (P35372 whole entry): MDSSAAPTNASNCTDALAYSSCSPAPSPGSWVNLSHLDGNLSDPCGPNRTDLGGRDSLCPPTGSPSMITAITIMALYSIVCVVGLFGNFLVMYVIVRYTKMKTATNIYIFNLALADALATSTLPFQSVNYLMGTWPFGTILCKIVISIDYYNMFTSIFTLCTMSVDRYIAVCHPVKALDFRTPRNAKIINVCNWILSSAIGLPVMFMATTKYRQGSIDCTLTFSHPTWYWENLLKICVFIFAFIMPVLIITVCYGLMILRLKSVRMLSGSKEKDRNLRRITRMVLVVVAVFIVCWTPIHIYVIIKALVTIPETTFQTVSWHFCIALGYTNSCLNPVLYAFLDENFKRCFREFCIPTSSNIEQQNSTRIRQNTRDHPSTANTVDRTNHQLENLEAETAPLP

Structure (SMILES): COc1cc(C2c3cc4c(cc3OC(NCCc3ccccc3)C2C)OCO4)cc(OC)c1OC (centres undefined)
- IC50 (cells [1]): > 29.9 µM (inactive)
- IC50 [2]: 261 nM (active)
- EC50 [3]: 23.9 nM (active)
- EC50 (cells [4]): > 29.9 µM (inactive)

Structure (SMILES): CN=C(S)NNC(=O)c1oc2nc(-c3ccccc3)cc(-c3ccco3)c2c1N
- IC50 (Albumin): > 94.1 µM (inactive)

Structure (SMILES): COc1cc2nc(Nc3ccc(F)cc3)nc(N)c2cc1OC
- IC50 (H9c2): > 79 µM (inactive)
- AC50 [5]: 7.26 µM (active)
- AC50 [6]: 49.9 µM (active)

Structure (SMILES): CC(=O)NC(Cc1cccc(C)c1)C(=O)NC1CCN(c2ncccc2[N+](=O)[O-])CC1 (centres undefined)
- EC50 [7]: > 53 µM (inactive)
- IC50 [8]: 18.8 µM (active)
- IC50 [9]: 5.13 µM (active)

Structure (SMILES): CC(N)Cc1ccc(O)cc1 (centres undefined) [HYDROXYAMPHETAMINE HYDROBROMIDE]
- IC50 (cells [1]): > 29.9 µM (inactive)
- IC50 [2]: 11.8 µM (inactive) and 5.84 µM (active)
- EC50 [3]: 1.71 µM (active) and 1.18 µM (active)
- EC50 (cells [4]): > 29.9 µM (inactive)

Structure (SMILES): CCOc1cc(/C=N/NC(=O)Nc2ccccc2)ccc1O
- IC50 [10]: 32.5 µM (active)
- EC50 (H4): 1.94 µM (active)
- IC50 [11]: > 67.6 µM (inactive)
- EC50 [12]: > 67.6 µM (inactive)
- IC50 (Large T antigen): > 100 µM (active)
- EC50 [13]: 16.6 µM (active)
- CC50 [14]: 100 µM (active)

Structure (SMILES): Clc1ccc(CN2CCN(c3ncccn3)CC2)c(Cl)c1
- EC50 [15]: 1.29 µM (active)
- EC50 (Mu-type opioid receptor): 92.5 µM (inactive)
